Target: BSA (Bos taurus, UniProt P02769)
Assay: biochemical

BSA, sequence (P02769 25-607): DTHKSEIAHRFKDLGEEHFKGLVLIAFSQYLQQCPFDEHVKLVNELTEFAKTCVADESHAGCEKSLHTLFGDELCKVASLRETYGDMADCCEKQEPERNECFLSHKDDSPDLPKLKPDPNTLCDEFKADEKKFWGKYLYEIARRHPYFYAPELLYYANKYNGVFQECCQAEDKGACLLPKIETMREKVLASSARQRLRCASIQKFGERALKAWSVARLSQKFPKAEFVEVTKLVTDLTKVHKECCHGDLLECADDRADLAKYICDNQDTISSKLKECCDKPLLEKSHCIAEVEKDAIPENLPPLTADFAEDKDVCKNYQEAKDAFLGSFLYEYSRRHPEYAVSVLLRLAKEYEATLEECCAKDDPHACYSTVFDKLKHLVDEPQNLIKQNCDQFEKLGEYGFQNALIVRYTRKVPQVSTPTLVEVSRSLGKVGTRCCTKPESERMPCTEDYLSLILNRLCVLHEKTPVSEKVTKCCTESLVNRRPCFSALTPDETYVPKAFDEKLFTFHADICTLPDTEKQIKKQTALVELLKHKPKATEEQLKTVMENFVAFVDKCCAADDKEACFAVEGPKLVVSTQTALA

Kd: 1780 ± 20 nM
Compound: C=CC1=C(C)C2=Cc3c(C=C)c(C)c4[n]3[Fe]([Cl])[n]3c(c(C)c(CCC(=O)O)c3=CC3=NC(=C4)C(C)=C3CCC(=O)O)=CC1=N2 [hemin]

Reference: article doi:10.1101/2023.06.29.547052v1 (biorxiv, 2023)
